A short description of data set [1]: heat stability of the rotaxane compound. In kind it is physicochemical.
Data set [2] deals with mouse malignant melanoma cell line (B16). The experiment in a line: Examination of anti-cancer action 1 (without electroporation), cell survival rate with Tetra Color One. Conditions: 10 and 100 nM, DMSO 0.1%, without electroporation, 0, 24, 48, 72 hours (FIG. 3). Type of data set: cell-based. The procedure: (§1) Subsequently, the cell line contained in each of the samples A0 to A5 was cultured in a CO2 incubator for 24 hours. The temperature in the CO2 incubator was set at 37.0° C., and the concentration of CO2 was set at 5.0%. Thereafter, 10 μl of a cell proliferation test reagent (manufactured by Seikagaku Corp.; product name: Tetra Color One) was added to each sample, and they were reacted in a CO2 incubator for 2 hours. Thereafter, the absorbance at a wavelength of 450 nm (control wavelength: 600 nm) was measured using a microplate reader (manufactured by Bio-Rad Laboratories, Inc.), so as to measure the survival rate of the cell line. The survival rate was measured at time points of 24, 48, and 72 hours after the reaction with the cell proliferation test reagent.
Subsequently, the cell line contained in the samples C0 to C2 were cultured under the same conditions as those described in the “determination of solvent concentration” above, and the cell proliferation test reagent was reacted therewith. Then, the survival rate of the cells was measured at 0, 24, 48, and 72 hours after the reaction.

Data set [3] shares this test system. The experiment in a line: Examination of anti-cancer action 2 (with electroporation), cell survival rate with Tetra Color One. In kind it is cell-based. Conditions: DMSO 0.1%. The procedure: as §1
Thereafter, a DC pulse of 30 V was applied to the electrodes of each cuvette 10 times, so as to perform an electroporation operation.
Subsequently, the cell line contained in the samples D0 to D2 were cultured under the same conditions as those described in the “determination of solvent concentration” above, and the cell proliferation test reagent was reacted therewith. Then, the survival rate of the cells was measured at 0, 24, 48, and 72 hours after the reaction.

On to “[2][bis (2-(3,5-dimethylphenylcarbonyloxy)ethyl) ammonium trifluoromethanesulfonate]-[dibenzo-24-crown-8] rotaxane”, for which the heat stability entry in data set [1] is “relatively heat-stable”. Moreover, the “survival rate / proliferation of cancer cells” value in data set [2] is listed as “has an effect of retarding the proliferation of cancer cells”; in data set [3] (10 and 100 nM, electroporation 30 V DC pulse 10 times, 0, 24, 48, 72 hours (FIG. 4)), “suppress the proliferation of cancer cells became significant”. Also, the “survival rate / number of cancer cells over time” value in data set [3] (sample D2: 100 nM, electroporation 30 V, 0-72 hours (FIG. 4)) was “cancer cells were reduced over time”.
